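Dose response: 5 concentrations. Exposure: 48 h. Format: 96-well plates. Endpoint: linear interpolation; highest concentration if not reached. The concentration for full growth arrest is given as TGI.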
Legend:
Assay in all cases: NCI-60 cell line screen, 48 h
SF-539 CNS = system: SF-539 CNS
OVCAR-5 ovarian = system: OVCAR-5 ovarian
ACHN renal = system: ACHN renal
RPMI-8226 leukemia = system: RPMI-8226 leukemia
SK-MEL-28 melanoma = system: SK-MEL-28 melanoma
SF-295 CNS = system: SF-295 CNS
NCI-H23 lung = system: NCI-H23 lung
U251 CNS = system: U251 CNS
786-0 renal = system: 786-0 renal
MALME-3M melanoma = system: MALME-3M melanoma
UO-31 renal = system: UO-31 renal
NCI-H226 lung = system: NCI-H226 lung
BT-549 breast = system: BT-549 breast
M14 melanoma = system: M14 melanoma

Cc1ccc(Nc2c(C#N)[n+]([O-])c3cc(Cl)ccc3[n+]2[O-])cc1
TGI (SF-539 CNS): > 100 µM | TGI (OVCAR-5 ovarian): > 100 µM | TGI (ACHN renal): > 100 µM | TGI (RPMI-8226 leukemia): > 100 µM | TGI (SK-MEL-28 melanoma): > 100 µM | TGI (SF-295 CNS): > 100 µM | TGI (NCI-H23 lung): > 100 µM | TGI (U251 CNS): > 100 µM | TGI (786-0 renal): > 100 µM | TGI (MALME-3M melanoma): > 100 µM | TGI (UO-31 renal): > 100 µM | TGI (NCI-H226 lung): > 100 µM | TGI (BT-549 breast): > 100 µM | TGI (M14 melanoma): > 100 µM

CC(SC(=S)N1CCOCC1)C(=O)Nc1nnc(-c2ccccc2)o1 (stereo unspecified)
TGI (SF-539 CNS): > 100 µM | TGI (OVCAR-5 ovarian): > 100 µM | TGI (ACHN renal): > 100 µM | TGI (RPMI-8226 leukemia): > 100 µM | TGI (SK-MEL-28 melanoma): > 100 µM | TGI (SF-295 CNS): > 100 µM | TGI (NCI-H23 lung): > 100 µM | TGI (U251 CNS): > 100 µM | TGI (786-0 renal): > 100 µM | TGI (MALME-3M melanoma): > 100 µM | TGI (UO-31 renal): > 100 µM | TGI (NCI-H226 lung): > 100 µM | TGI (BT-549 breast): > 100 µM | TGI (M14 melanoma): > 100 µM

CCC[C@H](NS(=O)c1ccc(C)cc1)C(C(=O)OCC)=C(c1ccccc1)c1ccccc1 (stereo partly specified)
TGI (SF-539 CNS): 48.5 µM | TGI (OVCAR-5 ovarian): 43.4 µM | TGI (ACHN renal): 60.8 µM | TGI (RPMI-8226 leukemia): 55.8 µM | TGI (SK-MEL-28 melanoma): 58 µM | TGI (SF-295 CNS): 40 µM | TGI (NCI-H23 lung): 96 µM | TGI (U251 CNS): 33.5 µM | TGI (786-0 renal): 35.9 µM | TGI (MALME-3M melanoma): 36.1 µM | TGI (UO-31 renal): 31.2 µM | TGI (NCI-H226 lung): 51.6 µM | TGI (BT-549 breast): 48.3 µM | TGI (M14 melanoma): 51.2 µM

C=CCSC1=N/C(=C\c2cccs2)C(=O)N1CC=C
TGI (SF-539 CNS): > 100 µM | TGI (OVCAR-5 ovarian): > 100 µM | TGI (ACHN renal): > 100 µM | TGI (RPMI-8226 leukemia): 91.3 µM | TGI (SK-MEL-28 melanoma): > 100 µM | TGI (SF-295 CNS): > 100 µM | TGI (NCI-H23 lung): > 100 µM | TGI (U251 CNS): > 100 µM | TGI (786-0 renal): > 100 µM | TGI (MALME-3M melanoma): > 100 µM | TGI (UO-31 renal): > 100 µM | TGI (NCI-H226 lung): > 100 µM | TGI (BT-549 breast): > 100 µM | TGI (M14 melanoma): > 100 µM

O=C(CSc1nc2[nH]ncc2c(=O)[nH]1)c1ccc(Cl)cc1
TGI (SF-539 CNS): > 100 µM | TGI (OVCAR-5 ovarian): > 100 µM | TGI (ACHN renal): > 100 µM | TGI (RPMI-8226 leukemia): > 100 µM | TGI (SK-MEL-28 melanoma): > 100 µM | TGI (SF-295 CNS): > 100 µM | TGI (NCI-H23 lung): > 100 µM | TGI (U251 CNS): > 100 µM | TGI (786-0 renal): > 100 µM | TGI (MALME-3M melanoma): > 100 µM | TGI (UO-31 renal): > 100 µM | TGI (NCI-H226 lung): > 100 µM | TGI (BT-549 breast): > 100 µM | TGI (M14 melanoma): > 100 µM

Cc1nnc2sc(NN)nn12
TGI (SF-539 CNS): > 100 µM | TGI (OVCAR-5 ovarian): > 100 µM | TGI (ACHN renal): > 100 µM | TGI (RPMI-8226 leukemia): > 100 µM | TGI (SK-MEL-28 melanoma): > 100 µM | TGI (SF-295 CNS): > 100 µM | TGI (NCI-H23 lung): > 100 µM | TGI (U251 CNS): > 100 µM | TGI (786-0 renal): > 100 µM | TGI (MALME-3M melanoma): > 100 µM | TGI (UO-31 renal): > 100 µM | TGI (NCI-H226 lung): > 100 µM | TGI (BT-549 breast): > 100 µM | TGI (M14 melanoma): > 100 µM

CC1Oc2c(c(=O)oc3ccccc23)[C@@]1(C)CC1C[C@H](C)C(=O)O1 (stereo partly specified)
TGI (SF-539 CNS): 64.2 µM | TGI (OVCAR-5 ovarian): > 100 µM | TGI (ACHN renal): 65.8 µM | TGI (RPMI-8226 leukemia): 77.4 µM | TGI (SK-MEL-28 melanoma): 38.7 µM | TGI (SF-295 CNS): > 100 µM | TGI (NCI-H23 lung): 40.9 µM | TGI (U251 CNS): > 100 µM | TGI (786-0 renal): 33.4 µM | TGI (MALME-3M melanoma): 53.4 µM | TGI (UO-31 renal): 90.2 µM | TGI (NCI-H226 lung): > 100 µM | TGI (BT-549 breast): 71.8 µM | TGI (M14 melanoma): 39.6 µM

CN(NC(=O)c1cccs1)C1=NCCCCN1
TGI (SF-539 CNS): > 100 µM | TGI (OVCAR-5 ovarian): > 100 µM | TGI (ACHN renal): > 100 µM | TGI (RPMI-8226 leukemia): > 100 µM | TGI (SK-MEL-28 melanoma): > 100 µM | TGI (SF-295 CNS): > 100 µM | TGI (NCI-H23 lung): > 100 µM | TGI (U251 CNS): > 100 µM | TGI (786-0 renal): > 100 µM | TGI (MALME-3M melanoma): > 100 µM | TGI (UO-31 renal): > 100 µM | TGI (NCI-H226 lung): > 100 µM | TGI (BT-549 breast): > 100 µM | TGI (M14 melanoma): > 100 µM

Clc1cc(Cl)cc(C2ON=C(c3ccccc3)N2C23CC4CC(CC(C4)C2)C3)c1 (stereo unspecified)
TGI (SF-539 CNS): > 10 µM | TGI (OVCAR-5 ovarian): > 10 µM | TGI (ACHN renal): > 10 µM | TGI (RPMI-8226 leukemia): > 10 µM | TGI (SK-MEL-28 melanoma): > 10 µM | TGI (SF-295 CNS): > 10 µM | TGI (NCI-H23 lung): > 10 µM | TGI (U251 CNS): > 10 µM | TGI (786-0 renal): > 10 µM | TGI (MALME-3M melanoma): > 10 µM | TGI (UO-31 renal): > 10 µM | TGI (NCI-H226 lung): > 10 µM | TGI (BT-549 breast): > 10 µM | TGI (M14 melanoma): > 10 µM

Cc1nc(N/N=C/c2ccccc2Cl)[nH]c(=O)c1CCO
TGI (SF-539 CNS): > 100 µM | TGI (OVCAR-5 ovarian): > 100 µM | TGI (ACHN renal): > 100 µM | TGI (RPMI-8226 leukemia): > 100 µM | TGI (SK-MEL-28 melanoma): > 100 µM | TGI (SF-295 CNS): 96 µM | TGI (NCI-H23 lung): > 100 µM | TGI (U251 CNS): > 100 µM | TGI (786-0 renal): > 100 µM | TGI (MALME-3M melanoma): 91.4 µM | TGI (UO-31 renal): > 100 µM | TGI (NCI-H226 lung): > 100 µM | TGI (BT-549 breast): > 100 µM | TGI (M14 melanoma): > 100 µM

CC(C)NC(=O)OCc1c(COC(=O)NC(C)C)c(-c2cc[n+](COC(=O)C(C)(C)C)cc2)n2c1CCC2
TGI (SF-539 CNS): > 100 µM | TGI (OVCAR-5 ovarian): > 100 µM | TGI (ACHN renal): > 100 µM | TGI (RPMI-8226 leukemia): > 100 µM | TGI (SK-MEL-28 melanoma): > 100 µM | TGI (SF-295 CNS): > 100 µM | TGI (NCI-H23 lung): > 100 µM | TGI (U251 CNS): > 100 µM | TGI (786-0 renal): > 100 µM | TGI (MALME-3M melanoma): > 100 µM | TGI (UO-31 renal): > 100 µM | TGI (NCI-H226 lung): > 100 µM | TGI (BT-549 breast): > 100 µM | TGI (M14 melanoma): > 100 µM

Cc1nc2c(=O)n(-c3ccccc3)c3ccccc3c2o1
TGI (SF-539 CNS): > 100 µM | TGI (OVCAR-5 ovarian): > 100 µM | TGI (ACHN renal): > 100 µM | TGI (RPMI-8226 leukemia): > 100 µM | TGI (SK-MEL-28 melanoma): > 100 µM | TGI (SF-295 CNS): > 100 µM | TGI (NCI-H23 lung): > 100 µM | TGI (U251 CNS): > 100 µM | TGI (786-0 renal): > 100 µM | TGI (MALME-3M melanoma): > 100 µM | TGI (UO-31 renal): > 100 µM | TGI (NCI-H226 lung): > 100 µM | TGI (BT-549 breast): > 100 µM | TGI (M14 melanoma): > 100 µM

CCN1C(=O)C(C)S/C1=N\NC(=O)CSc1nc2ccccc2c(=O)n1CC (stereo unspecified)
TGI (SF-539 CNS): > 100 µM | TGI (OVCAR-5 ovarian): > 100 µM | TGI (ACHN renal): > 100 µM | TGI (RPMI-8226 leukemia): > 100 µM | TGI (SK-MEL-28 melanoma): > 100 µM | TGI (SF-295 CNS): > 100 µM | TGI (NCI-H23 lung): > 100 µM | TGI (U251 CNS): > 100 µM | TGI (786-0 renal): > 100 µM | TGI (MALME-3M melanoma): > 100 µM | TGI (UO-31 renal): > 100 µM | TGI (NCI-H226 lung): > 100 µM | TGI (BT-549 breast): > 100 µM | TGI (M14 melanoma): > 100 µM

CCOC(=O)CSc1nnc2cc(CN3CCCC3)c(-c3ccc(Cl)cc3)nn12
TGI (SF-539 CNS): > 100 µM | TGI (OVCAR-5 ovarian): > 100 µM | TGI (ACHN renal): > 100 µM | TGI (RPMI-8226 leukemia): > 100 µM | TGI (SK-MEL-28 melanoma): > 100 µM | TGI (SF-295 CNS): > 100 µM | TGI (NCI-H23 lung): > 100 µM | TGI (U251 CNS): > 100 µM | TGI (786-0 renal): > 100 µM | TGI (MALME-3M melanoma): > 100 µM | TGI (UO-31 renal): > 100 µM | TGI (NCI-H226 lung): > 100 µM | TGI (BT-549 breast): > 100 µM | TGI (M14 melanoma): > 100 µM

Source: PubChem BioAssay (NCI)
